Test results as given in patent EP4603105A1, “PHARMACEUTICAL COMPOSITION CONTAINING CYCLIC COMPOUND HAVING SELECTIVE KRAS INHIBITORY EFFECT AGAINST HRAS AND NRAS” (CHUGAI SEIYAKU KABUSHIKI KAISHA, priority 2022, dated 2024).
pIC50, pKd: −log10 of the molar value.

Columns and labels:
[1] = target: GDP-bound NRAS wild-type protein (Homo sapiens, UniProt P01111); experiment: Binding to NRAS by surface plasmon resonance (SPR), KD and KD ratio to KRAS; conditions: ratio of KD for GDP-bound NRAS wild-type protein to KD for KRAS
Sequence of GDP-bound NRAS wild-type protein (P01111 whole entry): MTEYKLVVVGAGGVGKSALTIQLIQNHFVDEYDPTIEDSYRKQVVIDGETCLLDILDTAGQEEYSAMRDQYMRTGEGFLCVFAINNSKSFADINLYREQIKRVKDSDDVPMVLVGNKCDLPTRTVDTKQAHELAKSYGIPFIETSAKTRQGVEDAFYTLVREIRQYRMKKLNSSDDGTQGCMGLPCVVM
In short: (§1)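 Measured at 30°C: SPR with GDP-loaded, E. coli-expressed biotin-Avi RAS captured (~100–300 RU), ascending 75 s compound injections, HBS pH 7.4 with GDP, MgCl2, 4% DMSO. KD from 1:1 fit.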

[2] = system: human lung cancer strain NCI-H441; assay type: cell-based
In short: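 Signal came from […] measured per well once the reagent was added. Beforehand, cells were cultured at 37°C and 5% carbon dioxide on a compound series serially diluted in dimethyl sulfoxide.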

[3] = target: GDP-bound KRAS wild-type protein (Homo sapiens, UniProt P01116); experiment: Binding to KRAS by surface plasmon resonance (SPR), dissociation constant KD; conditions: Single Cycle Kinetics
Sequence of GDP-bound KRAS wild-type protein (P01116 1-188 isoform P01116-2): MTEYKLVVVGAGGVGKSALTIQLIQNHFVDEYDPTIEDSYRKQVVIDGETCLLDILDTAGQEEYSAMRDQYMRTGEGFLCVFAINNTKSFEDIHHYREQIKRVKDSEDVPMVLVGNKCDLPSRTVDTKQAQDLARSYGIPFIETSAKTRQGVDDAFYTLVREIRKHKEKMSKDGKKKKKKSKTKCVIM
In short: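 Compound binding is evaluated by SPR single-cycle kinetics, with concentrations added intermittently from low to high for 75 s each. Target surfaces carry GDP-loaded biotinylated Avi-RAS at about 100–300 RU, regenerated after each cycle; temperature 30°C. A 1:1 binding model gives KD.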

HRAS wild-type protein = HRAS wild-type protein (Homo sapiens, UniProt P01112); experiment: Binding to HRAS by surface plasmon resonance (SPR), KD and KD ratio to KRAS; conditions: ratio of KD for HRAS wild-type protein to KD for KRAS
Sequence of HRAS wild-type protein (P01112 whole entry): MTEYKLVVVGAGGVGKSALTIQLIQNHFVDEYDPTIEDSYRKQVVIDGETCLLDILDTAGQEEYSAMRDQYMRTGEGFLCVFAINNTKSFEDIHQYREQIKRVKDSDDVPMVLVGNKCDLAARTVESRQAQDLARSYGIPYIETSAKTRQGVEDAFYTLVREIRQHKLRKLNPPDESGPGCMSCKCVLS
In short: as §1

CC[C@H](C)[C@@H]1NC(=O)[C@H](CC(C)C)N(C)C(=O)C[C@@H](C(=O)N2CCOCC2)N(C)C(=O)[C@H](C2CCCC2)N(C)C(=O)C2(CCC2)NC(=O)[C@@H]2[C@H]3C[C@H]3CN2C(=O)[C@H](CCc2cc(F)c(C(F)(F)F)c(F)c2)NC(=O)CN(C)C(=O)[C@H](Cc2ccc(C(F)(F)F)cc2)N2CCCCC[C@@H](C2=O)N(C)C(=O)CN(C)C1=O [PP0819]
NRAS /KRAS [1]: A (a compound having 10 or more and less than 20 is denoted as A)
pIC50 [2]: 7.12
pKd [3]: 9.25
HRAS /KRAS (HRAS wild-type protein): B (a compound having 3 or more and less than 10 is denoted as B)

CCO[C@@H]1C[C@H]2C(=O)NC3(CCC3)C(=O)N(C)[C@@H](C(CC)CC)C(=O)N(C)[C@H](C(=O)N3CCOCC3)CC(=O)N(C)[C@@H](CC(C)C)C(=O)N[C@@H]([C@@H](C)CC)C(=O)N(C)CC(=O)N(C)[C@H]3CCCCCN(C3=O)[C@@H](Cc3ccc(C(F)(F)F)cc3)C(=O)N(C)CC(=O)N[C@@H](CCc3cc(F)c(C(F)(F)F)c(F)c3)C(=O)N2C1 [PP0820]
NRAS /KRAS [1]: A (a compound having 10 or more and less than 20 is denoted as A)
pIC50 [2]: 7.22
pKd [3]: 8.92
HRAS /KRAS (HRAS wild-type protein): B (a compound having 3 or more and less than 10 is denoted as B)

CCO[C@@H]1C[C@H]2C(=O)NC3(CCC3)C(=O)N(C)[C@@H]([C@H](C)CC)C(=O)N(C)[C@H](C(=O)N3CCOCC3)CC(=O)N(C)[C@@H](CC(C)C)C(=O)N[C@@H]([C@@H](C)CC)C(=O)N(C)CC(=O)N(C)[C@H]3CCCCCN(C3=O)[C@@H](Cc3ccc(C(F)(F)F)cc3)C(=O)N(C)CC(=O)N[C@@H](CCc3cc(F)c(C(F)(F)F)c(F)c3)C(=O)N2C1 [PP0821]
NRAS /KRAS [1]: A (a compound having 10 or more and less than 20 is denoted as A)
pIC50 [2]: 6.60
pKd [3]: 8.70
HRAS /KRAS (HRAS wild-type protein): B (a compound having 3 or more and less than 10 is denoted as B)

CCO[C@@H]1C[C@H]2C(=O)NC3(CCC3)C(=O)N(C)[C@@H](C3CCCC3)C(=O)N(C)[C@H](C(=O)N3CCOCC3)CC(=O)N(C)[C@@H](CC(C)C)C(=O)N[C@@H]([C@@H](C)CC)C(=O)N(C)CC(=O)N(C)[C@H]3CC=C(C)CN(C3=O)[C@@H](Cc3ccc(C(F)(F)F)cc3)C(=O)N(C)CC(=O)N[C@@H](CCc3cc(F)c(C(F)(F)F)c(F)c3)C(=O)N2C1 [PP0826]
NRAS /KRAS [1]: C (A compound having a KD ratio of 0.1 or more and less than 3 is denoted as C)
pIC50 [2]: 7.94
pKd [3]: 9.89
HRAS /KRAS (HRAS wild-type protein): B (a compound having 3 or more and less than 10 is denoted as B)

CCO[C@@H]1C[C@H]2C(=O)NC3(CCC3)C(=O)N(C)[C@@H](C3CCCC3)C(=O)N(C)[C@H](C(=O)N3CCOCC3)CC(=O)N(C)[C@@H](CC(C)C)C(=O)N[C@@H]([C@@H](C)CC)C(=O)N(C)CC(=O)N(C)[C@H]3C[C@H]4C[C@H]4CN(C3=O)[C@@H](Cc3ccc(C(F)(F)F)cc3)C(=O)N(C)CC(=O)N[C@@H](CCc3cc(F)c(C(F)(F)F)c(F)c3)C(=O)N2C1 [PP0829]
NRAS /KRAS [1]: B (a compound having 3 or more and less than 10 is denoted as B)
pIC50 [2]: 8.36
pKd [3]: 10.09
HRAS /KRAS (HRAS wild-type protein): C (A compound having a KD ratio of 0.1 or more and less than 3 is denoted as C)

CC[C@H](C)[C@@H]1NC(=O)[C@H](COC)N(C)C(=O)C[C@@H](C(=O)N2CCOCC2)N(C)C(=O)[C@H](C2CCCC2)N(C)C(=O)C2(CCC2)NC(=O)[C@@H]2CC(F)(F)CN2C(=O)[C@H](CCc2cc(F)c(C(F)(F)F)c(F)c2)NC(=O)CN(C)C(=O)[C@H](Cc2ccc(C(F)(F)F)cc2)N2CCCCC[C@@H](C2=O)N(C)C(=O)CN(C)C1=O [PP0834]
NRAS /KRAS [1]: A (a compound having 10 or more and less than 20 is denoted as A)
pIC50 [2]: 7.87
pKd [3]: 9.72
HRAS /KRAS (HRAS wild-type protein): B (a compound having 3 or more and less than 10 is denoted as B)

CCO[C@@H]1C[C@H]2C(=O)NC3(CCC3)C(=O)N(C)[C@@H](C3CCCC3)C(=O)N(C)[C@H](C(=O)N3CCOCC3)CC(=O)N(C)[C@@H](COC3CC3)C(=O)N[C@@H]([C@@H](C)CC)C(=O)N(C)CC(=O)N(C)[C@H]3CCCCCN(C3=O)[C@@H](Cc3ccc(C(F)(F)F)cc3)C(=O)N(C)CC(=O)N[C@@H](CCc3cc(F)c(C(F)(F)F)c(F)c3)C(=O)N2C1 [PP0852]
NRAS /KRAS [1]: B (a compound having 3 or more and less than 10 is denoted as B)
pIC50 [2]: 7.45
pKd [3]: 9.34
HRAS /KRAS (HRAS wild-type protein): B (a compound having 3 or more and less than 10 is denoted as B)

CCO[C@@H]1C[C@H]2C(=O)NC3(CCC3)C(=O)N(C)[C@@H](C3CCCC3)C(=O)N(C)[C@H](C(=O)N3CCOCC3)CC(=O)N(C)[C@@H](COCC(F)(F)F)C(=O)N[C@@H]([C@@H](C)CC)C(=O)N(C)CC(=O)N(C)[C@H]3CCCCCN(C3=O)[C@@H](Cc3ccc(C(F)(F)F)cc3)C(=O)N(C)CC(=O)N[C@@H](CCc3cc(F)c(C(F)(F)F)c(F)c3)C(=O)N2C1 [PP0853]
NRAS /KRAS [1]: B (a compound having 3 or more and less than 10 is denoted as B)
pIC50 [2]: 7.61
pKd [3]: 9.17
HRAS /KRAS (HRAS wild-type protein): B (a compound having 3 or more and less than 10 is denoted as B)

CCO[C@@H]1C[C@H]2C(=O)NC3(CCC3)C(=O)N(C)[C@@H](C3CCCC3)C(=O)N(C)[C@H](C(=O)N3CCOCC3)CC(=O)N(C)[C@@H](Cc3cscn3)C(=O)N[C@@H]([C@@H](C)CC)C(=O)N(C)CC(=O)N(C)[C@H]3CCCCCN(C3=O)[C@@H](Cc3ccc(C(F)(F)F)cc3)C(=O)N(C)CC(=O)N[C@@H](CCc3cc(F)c(C(F)(F)F)c(F)c3)C(=O)N2C1 [PP0855]
NRAS /KRAS [1]: B (a compound having 3 or more and less than 10 is denoted as B)
pIC50 [2]: 6.94
pKd [3]: 9.08
HRAS /KRAS (HRAS wild-type protein): B (a compound having 3 or more and less than 10 is denoted as B)

CCO[C@@H]1C[C@H]2C(=O)NC3(CCC3)C(=O)N(C)[C@@H](C3CCCC3)C(=O)N(C)[C@H](C(=O)N3CCOCC3)CC(=O)N(C)[C@@H](Cc3cccc(F)c3)C(=O)N[C@@H]([C@@H](C)CC)C(=O)N(C)CC(=O)N(C)[C@H]3CCCCCN(C3=O)[C@@H](Cc3ccc(C(F)(F)F)cc3)C(=O)N(C)CC(=O)N[C@@H](CCc3cc(F)c(C(F)(F)F)c(F)c3)C(=O)N2C1 [PP0856]
NRAS /KRAS [1]: B (a compound having 3 or more and less than 10 is denoted as B)
pIC50 [2]: 7.18
pKd [3]: 9.02
HRAS /KRAS (HRAS wild-type protein): B (a compound having 3 or more and less than 10 is denoted as B)

CC[C@H](C)[C@@H]1NC(=O)[C@H](CC(C)C)N(C)C(=O)C[C@@H](C(=O)N2CCOCC2)N(C)C(=O)[C@H](C2CCCC2)N(C)C(=O)C2(CCC2)NC(=O)[C@@H]2[C@H](O)CCN2C(=O)[C@H](CCc2cc(F)c(C(F)(F)F)c(F)c2)NC(=O)CN(C)C(=O)[C@H](Cc2ccc(C(F)(F)F)cc2)N2CCCCC[C@@H](C2=O)N(C)C(=O)CN(C)C1=O [PP0873]
NRAS /KRAS [1]: A (a compound having 10 or more and less than 20 is denoted as A)
pIC50 [2]: 6.05
pKd [3]: 9.07
HRAS /KRAS (HRAS wild-type protein): B (a compound having 3 or more and less than 10 is denoted as B)

C=CCCC[C@H]1C(=O)N[C@@H]([C@@H](C)CC)C(=O)N(C)CC(=O)N(C)[C@H]2CCCCCN(C2=O)[C@@H](Cc2ccc(C(F)(F)F)cc2)C(=O)N(C)CC(=O)N[C@@H](CCc2cc(F)c(C(F)(F)F)c(F)c2)C(=O)N2C[C@H](OCC)C[C@H]2C(=O)N[C@](C)(CC=C)C(=O)N(C)[C@@H](C2CCCC2)C(=O)N(C)[C@H](C(=O)N2CCOCC2)CC(=O)N1C [PP0880]
NRAS /KRAS [1]: B (a compound having 3 or more and less than 10 is denoted as B)
pIC50 [2]: 6.80
pKd [3]: 8.35
HRAS /KRAS (HRAS wild-type protein): B (a compound having 3 or more and less than 10 is denoted as B)

CCO[C@@H]1C[C@H]2C(=O)NC3(CCC3)C(=O)N(C)[C@@H](C3CCCC3)C(=O)N(C)[C@H](C(=O)N(C)C)CC(=O)N(C)[C@@H](CC)C(=O)N[C@@H]([C@@H](C)CC)C(=O)N(C)CC(=O)N(C)[C@H]3CCCCN(C3=O)[C@@H](Cc3ccc(C(F)(F)F)cc3)C(=O)N(C)CC(=O)N[C@@H](CCc3ccc4ccsc4c3)C(=O)N2C1 [PP0888]
NRAS /KRAS [1]: C (A compound having a KD ratio of 0.1 or more and less than 3 is denoted as C)
pIC50 [2]: 7.59
pKd [3]: 9.77
HRAS /KRAS (HRAS wild-type protein): B (a compound having 3 or more and less than 10 is denoted as B)

CCO[C@@H]1C[C@H]2C(=O)NC3(CCC3)C(=O)N(C)[C@@H](C3CCCC3)C(=O)N(C)[C@H](C(=O)N(C)C)CC(=O)N(C)[C@@H](CC)C(=O)N[C@@H]([C@@H](C)CC)C(=O)N(C)CC(=O)N(C)[C@H]3CCCCCN(C3=O)[C@@H](Cc3ccc(F)c(F)c3)C(=O)N(C)CC(=O)N[C@@H](CCc3cc(F)c(C(F)(F)F)c(F)c3)C(=O)N2C1 [PP0907]
NRAS /KRAS [1]: B (a compound having 3 or more and less than 10 is denoted as B)
pIC50 [2]: 7.61
pKd [3]: 9.80
HRAS /KRAS (HRAS wild-type protein): B (a compound having 3 or more and less than 10 is denoted as B)

CCO[C@@H]1C[C@H]2C(=O)NC3(CCC3)C(=O)N(C)[C@@H](C3CCCC3)C(=O)N(C)[C@H](C(=O)N(C)C)CC(=O)N(C)[C@@H](CC)C(=O)N[C@@H]([C@@H](C)CC)C(=O)N(C)CC(=O)N(C)[C@H]3CCCCCN(C3=O)[C@@H](Cc3ccc(F)cc3Cl)C(=O)N(C)CC(=O)N[C@@H](CCc3cc(F)c(C(F)(F)F)c(F)c3)C(=O)N2C1 [PP0908]
NRAS /KRAS [1]: B (a compound having 3 or more and less than 10 is denoted as B)
pIC50 [2]: 7.41
pKd [3]: 9.72
HRAS /KRAS (HRAS wild-type protein): B (a compound having 3 or more and less than 10 is denoted as B)
